Results as given in patent US4847302A, “Use of certain compounds in livestock food as growth promotants for better feed utilization and improved carcass composition” (Merck & Co., Inc., priority 1988, dated 1989).

How the values were obtained:
[1] = Growth promoting activity / feed utilization in livestock (general statements); assay type: in vivo
[2] = tested on: Isolated Swine Adipocytes; assay: Stimulation of lipolysis (glycerol production) in isolated swine adipocytes; assay type: cell-based; settings: Sus scrofa, Adipocyte, 2 h, Test 1, read-out: percent increase compared to control, glycerol production
Method: (§1) Fat was collected from freshly killed animals as follows: epididymal and perirenal fat from 150 to 200 g male rates; perirenal fat from 20 to 25 kg whether lambs, and perirenal and omental fat from 35 to 50 kg gilts. Immediately after collection, fat was placed in a siliconized beaker (all glassware was siliconized) containing Krebs-Ringer bicarbonate solution (KRB; pH 7.4) at 37° C. Fat was transferred to a clean beaker and finely chopped with scissors. Chopped fat was then used as such (whole adipose preparation) or treated with collagenase (isolated adipocytes).
(§2) Chopped fat was placed in a shaker containing 70 ml cell dispersion medium (CDM; 5 mM glucose, 0.1% collagenase, 4% bovine serum albumin (BSA), in KRB) and incubated at 37° C. for 1 hour with gentle shaking. Fat was then filtered to remove clumps and washed 4 times with washing medium (WM; 2.5 mM glucose, 1% BSA, in KRB) and 1 time with final suspension medium (FSM; 2.5 mM glucose, 2% essentially fatty acid free BSA, in KRB). Isolated adipocytes were then resuspended in the required amount of FSM (1 ml/flask, 3 flasks/treatment).
(§3) Whole adipose tissue from the rat (0.3 ml) or isolated adipocytes from sheep or swine (1 ml) were placed in plastic scintillation vials containing FSM (1.7 or 1 ml, respectively) and test compounds, and incubated at 37° C. for 2 hours. […] Isoproterenol, at the same concentrations, was used as a positive control. After incubation, media was removed and assayed for glycerol by a fluorometric modification of the method of Wieland (1974. Glycerol UV-method. pp. 1404. In: Bergmeyer (Ed.) Methods of Enzymatic Analysis. Verlag Chemie Weinham, Academic Press, New York).

[3] = tested on: Isolated Chicken Hepatocytes; assay: Inhibition of lipogenesis (14C acetate incorporation) in isolated chicken hepatocytes; assay type: cell-based; settings: Gallus gallus, Hepatocyte, 2 h, Test 1, read-out: percent change compared to control, 14C acetate incorporation in fatty acids
Method: Determination of anti-lipogenic activity in hepatocytes
Hepatocytes were isolated from chicken liver using the procedure for adipocytes and incubated for 2 hours at 37° C. in the presence of ^14 C acetate and test compounds. […] Isoproterenol, at the same concentrations, was used as a positive control. After incubation, 8 ml Doles reagent (isopropanol:hexane:H2 SO4, 40:10:1) was added and incubation vials were shaken at room temperature for 30 minutes. Vial contents were poured into 50 ml screw-cap tubes. Vials were then rinsed with 6 ml hexane which was poured into the appropriate 50 ml tube. Tubes were shaken by hand, 10 ml H2 O was added, and tubes were shaken again. After phase separation, 2 ml of the upper (hexane) phase was removed to scintillation vials. Hexane was evaporated by a gentle air flow and the remaining lipids were resuspended in 10 ml Scinti Verse II. ^14 C was counted in a Packard liquid scintillation counter. Data are reported as CPM of ^14 C acetate incorporated into total lipids.

Rat Adipose Tissue = assay: Stimulation of lipolysis (glycerol production) in chopped rat adipose tissue; assay type: cell-based; settings: Rattus norvegicus, 2 h, Test 1, read-out: percent increase compared to control, glycerol production
Method: as §1
as §3, with “York). […]” for “York).”

[4] = In vivo testing in rats: growth, feed conversion and carcass composition; set-up: species or system rat (male Charles River CD); settings: in diet, dose equivalent to 20 ppm clenbuterol (clenbuterol: 10)
Source text: Eighty intact, male Charles River CD rats, 75-90 g, were housed and maintained on rat chow and water ad libitum. After four days acclimation ten rats per group were randomized by weight to treatment and pen. Compounds to be tested were premixed and added to ground rat chow using doses equivalent to 20 ppm of clenbuterol on a molecular weight basis. It had previously been determined 10 ppm of clenbuterol was the minimum dose needed to give maximum improvements in gain and feed conversion. Therefore, the results of any compound tested should cause responses similar to clenbuterol if the compound has half or more the activity of clenbuterol.

[5] = tested on: Isolated Ovine Adipocytes; assay: Stimulation of lipolysis (glycerol production) in isolated ovine adipocytes; assay type: cell-based, sheep; settings: Test 1
Method: as §1, §2, §3

For `CC(C)(C)NCC(O)c1ccc(O)c(O)c1` (stereo not shown) [Compound X, Colterol], the “growth promoting activity, oral” value ([1]; administered orally) was “very little activity” and the “growth promoting activity, parenteral” value ([1]; administered parenterally) was “substantially active”.

Work on `COc1ccc(CNc2cc(C(O)CNC(C)(C)C)ccc2O)cc1` (stereo not shown) [III] yielded an activation at 0.01 µM [2] of 20%, an activation at 0.05 µM [2] of 33% and an activation at 0.25 µM [2] of 53%. For the same molecule, the inhibition at 0.01 µM [3] was 9.5%, the inhibition at 0.05 µM [3] was 35.5% and the inhibition at 0.25 µM [3] was 54.4%. It also gave an activation at 0.01 µM (Rat Adipose Tissue) of 194%, an activation at 0.05 µM (Rat Adipose Tissue) of 203% and an activation at 0.25 µM (Rat Adipose Tissue) of 334%. For the same molecule, the Gain ([4]; Test 1, control 7.3) was 8.0 g/day, the “Feed Intake” value ([4]; Test 1, control 18.6) was 19.4 g/day and the Weight ([4]; Test 1, control 191.8) was 201.7 g. The “Carcass Composition % of Change over Control, Fat” value ([4]; Test 1) was -7.0%, the “Carcass Composition % of Change over Control, Protein” value ([4]; Test 1) was 6.1% and the activation at 0.01 µM ([5]; Ovis aries, Adipocyte, 2 h, 0.01 μM, read-out: percent increase compared to control, glycerol production) was 465%. The activation at 0.05 µM ([5]; Ovis aries, Adipocyte, 2 h, 0.05 μM, read-out: percent increase compared to control, glycerol production) was 845%.

`CC(C)(C)NCC(O)c1cc(Br)no1` (stereo not shown) [II] gave an activation at 0.01 µM [2] of 27%, an activation at 0.05 µM [2] of -7% and an activation at 0.25 µM [2] of -40%. For the same molecule, the inhibition at 0.01 µM [3] was 0%, the inhibition at 0.05 µM [3] was 0% and the inhibition at 0.25 µM [3] was 7.9%. The activation at 0.01 µM (Rat Adipose Tissue) was 51%, the activation at 0.05 µM (Rat Adipose Tissue) was 15% and the activation at 0.25 µM (Rat Adipose Tissue) was 35%. For the same molecule, the Gain ([4]; Test 2, control 7.5) was 8.4 g/day, the “Feed Intake” value ([4]; Test 2, control 19.3) was 21.1 g/day and the Weight ([4]; Test 2, control 202.3) was 215.9 g. For the same molecule, the “Carcass Composition % of Change over Control, Fat” value ([4]; Test 2) was -9.3%, the “Carcass Composition % of Change over Control, Protein” value ([4]; Test 2) was 3.8% and the activation at 0.25 µM ([5]; Ovis aries, Adipocyte, 2 h, 0.25 μM, read-out: percent increase compared to control, glycerol production) was 325%. For the same molecule, the “percent increase compared to control, glycerol production” value ([5]; 0.05 μM) was “inactive”.
